Counter-ions that a name gives are not always drawn.
Experiments:
[1] = tested on: cultured human keratinocytes (KCs); assay: Microarray genome-wide expression, IDMF vs. CTL, MS-associated genes; assay type: cell-based
Experimental: (§1) RNA sample processing and microarray hybridizations were performed using the Affymetrix Human Genome U133 Plus 2.0 array platform. DNA microarray samples evaluated included IDMF- and vehicle-treated KCs (n=2 replicates per group). Samples were normalized using the robust multichip average (RMA) algorithm. Identification of probe sets with detectable expression was performed using the MAS 5.0 method, which identifies probe sets with above-background expression based upon the Wilcoxon signed rank test. To limit redundancy in downstream analyses, a single probe set was chosen to represent each protein-coding human gene featured on the microarray platform. This representative was chosen as the probe set with highest expression for each protein-coding human gene. These probe sets were then additionally filtered to include only those with detectable expression in at least 1 of the 4 samples (P<0.05, Wilcoxon signed rank test). Overall, this yielded a total of 12330 protein-coding genes that were included in analyses, with each gene represented by a single representative probe set. Bayesian linear models and moderated t-statistics were then used to evaluate differential expression for each of the 12330 genes (IDMF vs. CTL treatment; R package: limma). To control the false discovery rate (FDR), raw p-values generated from linear model analyses were adjusted using the Benjamini-Hochberg method.
Genes associated with multiple sclerosis were identified based upon four established database sources: (1) the NHGRI-EBI genome-wide association (GWA) study catalogue, (2) the Disease Ontology (DO) database, (3) the DisGeNET database, and (4) the Medical Subject Heading (MESH) database. While there is some overlap between the various databases, the variation in identified genes from one database to the other reflects the fact that the science is still developing and has uncertainties. Nevertheless, as discussed below, efforts were undertaken to hone in on genes common to multiple databases. […]

[2] = tested on: NFE2L2 (NRF2) binding sites; assay: Enrichment of NFE2L2 (NRF2) and other binding sites upstream of IDMF-regulated genes; assay type: cell-based, human
Experimental: as §1
As noted in the background section above, the transcription factor nuclear factor (erythroid-derived 2)-like 2 (NFE2L2/NRF2) has previously been associated with multiple sclerosis. In this study, IDMF-regulated genes were evaluated to determine the extent to which IDMF led to the enrichment of NFE2L2/NRF2 binding sites in promoter-proximal regions. For these analyses, a NFE2L2/NRF2 binding site was obtained from the JASPAR database (JASPAR ID: MA0150). This binding site partially matches the consensus sequence 5-[A/G]TGAC—AGCA-3: additional information can be obtained from http://jaspar.genereg.net/cgi-bin/jaspar_db.pl?ID=MA0150.1&rm=present&collection=CORE. Tests for enrichment were performed by scanning regions 1 kb, 2 kb or 5 kb upstream of protein-coding genes, including either all sequence (conserved=No) or only sequences conserved among mammalian species (conserved=Yes). A positive Z statistic indicates a trend towards increased NFE2L2 (NRF2) binding sites in sequences upstream of IDMF-increased […] (DEGs), as compared to all other expressed genes). P-values indicate the significance of the reported Z statistic (semiparametric generalized additive logistic models). Predicted targets include IDMF-increased DEGs with the NFE2L2 (NRF2) binding site identified within the scanned upstream region.

[3] = tested on: cytokine-treated neonatal human epidermal keratinocytes (HEK); assay: qPCR of pro-inflammatory and antioxidant genes in cytokine-treated keratinocytes; assay type: cell-based; details: 4 μg/ml, 24 h, IL-17A/IL-22/TNFα treated HEK
Experimental: A separate assay study was conducted on cytokine-treated neonatal human epidermal keratinocytes (HEK) looking at the expression impact of IDMF and dimethyfumarate (DMF) on key pro-inflammatory and antioxidant genes. In preparation for the assay, HEK (p2; Cell Applications, San Diego) were cultured at optimal conditions [keratinocyte growth medium supplemented with KGM-Gold Bullet kit (Lonza, Switzerland)] to form a segmented monolayer. A cytokine mix of IL-17A/IL-22/TNFα (100 ng/ml; 100 ng/ml; 10 ng/ml; Antigenix, Huntington Station, N.Y.) was added and the cell cultures incubated for 24 h. […] Thereafter, each test material was added to the cultures at 4 μg/ml (final concentration) in triplicate and the cultures incubated for a further 24 hours.
After the 24-hour incubation with the test materials, the cells were observed through a Nikon Eclipse TS100 inverted microscope. No gross morphological changes were recorded. RNA was then extracted and purified with NucleoSpin RNA II kit from Machery-Nagel, Bethlehem, Pa., using QiaCube robotic station (Qiagen, Valencia, Calif.). Purified total RNA was assessed at 260 nm and 280 nm with NanoDrop Lite (Thermo Fisher Scientific, Waltham, Mass.), pure samples with A260A/280 and A260/A230 ratios of >1.7 were standardized and the expression of the genes of interest (Table 3) was measured by real-time quantitative PCR with BioRad iCycler iQ Detection System using custom-made PCR arrays (Qiagen, Valencia, Calif.; part #24caph12190), 5×All-In-One 1st Strand cDNA Synthesis Mix (Bioland Scientific, Paramount, Calif.) and 2×qPCR Master Mix (Bioland). Efficiency ΔΔCt method was used for quantification of results, after the normalization of gene expression to GAPDH/PPIA housekeeping gene. Genes were considered differentially expressed if the level of expression was reasonably high (less than 30 cycles to detect) and the modulation was >1.7. […] Even assuming IDMF fully metabolizes to MMF, there is still considerably more MMF from DMF as opposed to the same amount, based on weight, of IDMF.

[4] = genes common to at least two of four databases

SMILES: COC(=O)/C=C/C(=O)O[C@H]1CO[C@H]2[C@@H]1OC[C@H]2OC(=O)/C=C/C(=O)OC [IDMF, isosorbide di-(methyl fumarate)]
- average fold-change (IDMF/CTL) of MS-associated genes vs. randomly sampled gene sets ([1]; 76 MS-associated genes from the Disease Ontology (DO) database, P<0.001): significantly lower
- MS-associated genes most strongly decreased [1, 4]: ICAM1, PLAT, and MMP9
- MS-associated genes most strongly increased [1, 4]: POPDC3, MMP3, and DDAH1
- enrichment of NF-kappaB binding sites upstream of IDMF-decreased genes ([2]; FDR<0.10 with FC<0.67, P=1.16E-08): strongly enriched
- Z Statistic, enrichment of NFE2L2 (NRF2) binding sites upstream of IDMF-increased DEGs ([2]; Region 1 kb, Conserved No): 4.74
- Z Statistic, enrichment of NFE2L2 (NRF2) binding sites upstream of IDMF-increased DEGs ([2]; Region 1 kb, Conserved Yes): 5.91
- Z Statistic, enrichment of NFE2L2 (NRF2) binding sites upstream of IDMF-increased DEGs ([2]; Region 2 kb, Conserved No): 3.37
- Z Statistic, enrichment of NFE2L2 (NRF2) binding sites upstream of IDMF-increased DEGs ([2]; Region 2 kb, Conserved Yes): 3.21
- Z Statistic, enrichment of NFE2L2 (NRF2) binding sites upstream of IDMF-increased DEGs ([2]; Region 5 kb, Conserved No): 2.11
- Z Statistic, enrichment of NFE2L2 (NRF2) binding sites upstream of IDMF-increased DEGs ([2]; Region 5 kb, Conserved Yes): 1.05
- CXCL3 fold change [3]: −1.1 fold
- IL8 fold change [3]: 1.4 fold
- NFE2L2 fold change [3]: 2.6 fold
- PTGS2 fold change [3]: 1.2 fold

From patent US20220142967A1, “Methods and Compositions for the Treatment of Multiple Sclerosis” (SYMBIONYX PHARMACEUTICALS INC, priority 2018, published 2022)
